The source of these data is ChEMBL document CHEMBL1833855, “A facile synthesis of carbocycle-fused mono and bis-1,2,3-selenadiazoles and their antimicrobial and antimycobacterial studies” (2011).

Experiment [1] deals with Staphylococcus aureus. Nature of the experiment: Antibacterial activity against Staphylococcus aureus ATCC 11632 after 18 to 24 hrs by NCCLS M7-A5 based agar dilution method. Type of experiment: functional. (Agar dilution tests growth on a series of plates holding different concentrations.)
The subject of experiment [2] is Escherichia coli. The experiment is described as follows: Antibacterial activity against Escherichia coli ATCC 25922 assessed as zone of inhibition at 100 ug/disc after 24 hrs by agar disc diffusion method. In kind it is functional. The settings on record: ATCC 25922, 24 h, read-out: DIZ. On the technique in general: A growth-free zone around the sample is the usual read-out of agar diffusion tests.

Experiment [3] concerns Candida albicans. Nature of the experiment: Antifungal activity against Candida albicans ATCC 90028 after 18 to 24 hrs by NCCLS M7-A5 based agar dilution method. In kind it is functional.
The subject of experiment [4] is Escherichia coli. The experiment is described as follows: Antibacterial activity against Escherichia coli ATCC 25922 after 18 to 24 hrs by NCCLS M7-A5 based agar dilution method. Type of experiment: functional.
For experiment [5], the system named is Mycobacterium tuberculosis. Nature of the experiment: Antituberculosis activity against 10^7 cfu/mL Mycobacterium tuberculosis H37Rv after 28 days. In kind it is functional. The settings on record: 672 h.
Experiment [6] has as its system Staphylococcus aureus. Nature of the experiment: Antibacterial activity against Staphylococcus aureus ATCC 11632 assessed as zone of inhibition at 100 ug/disc after 24 hrs by agar disc diffusion method. In kind it is functional. The settings on record: ATCC 11632, 24 h, read-out: DIZ.
The test system of experiment [7] is Candida albicans. The experiment is described as follows: Antifungal activity against Candida albicans ATCC 90028 assessed as zone of inhibition at 100 ug/disc after 48 hrs by agar disc diffusion method. The following applies: ATCC 90028, 48 h, read-out: DIZ. In kind it is functional.
In experiment [8] the test system is Staphylococcus aureus. Nature of the experiment: microbe, parasite or virus in culture. The following applies: ATCC 11632, 24 h, read-out: DIZ.
Description: Antibacterial activity against Staphylococcus aureus ATCC 11632 assessed as zone of inhibition at 10 ug/disc after 24 hrs by agar disc diffusion method
Experiment [9] deals with Escherichia coli. Nature of the experiment: microbe, parasite or virus in culture. The following applies: ATCC 25922, 24 h, read-out: DIZ.
Description: Antibacterial activity against Escherichia coli ATCC 25922 assessed as zone of inhibition at 10 ug/disc after 24 hrs by agar disc diffusion method
For experiment [10], the system named is Candida albicans. Nature of the experiment: Antifungal activity against Candida albicans ATCC 90028 assessed as zone of inhibition at 10 ug/disc after 48 hrs by agar disc diffusion method. Type of experiment: functional. The settings on record: ATCC 90028, 48 h, read-out: DIZ.

Molecules are shown by their SMILES. Values after ≈ are worked out from the molar mass of the structure shown.

By MIC is commonly meant the lowest concentration that inhibits growth of the organism. High values mean a less susceptible organism, low ones a more susceptible organism. `COc1ccc(-c2nn[se]c2[C@@H](c2ccccc2)[C@@H]2CCCc3[se]nnc32)cc1`: the MIC came to 25 µg/mL (≈ 48.6 µM) in experiment [1], 50 µg/mL (≈ 97.2 µM) in experiment [3], 25 µg/mL (≈ 48.6 µM) in experiment [4] and 48.6 µM (≈ 25 µg/mL) in experiment [5]. Also, the zone of inhibition at 100 µg/disc in experiment [2], in [6] and in [7] was 12 mm in each case.

As for `c1ccc([C@H](c2[se]nnc2-c2ccc3ccccc3c2)[C@@H]2CCCc3[se]nnc32)cc1`, the MIC in experiment [1] is 50 µg/mL (≈ 93.6 µM); in [3], 50 µg/mL (≈ 93.6 µM); in experiment [4], 25 µg/mL (≈ 46.8 µM); in experiment [5] it was 46.8 µM (≈ 25 µg/mL). Also, the zone of inhibition at 100 µg/disc in experiment [2], in [6] and in experiment [7] was 10 mm throughout.

Consider `Cc1ccc([C@H](c2[se]nnc2-c2ccccc2)[C@@H]2CCCc3[se]nnc32)cc1`, for which the MIC was 12.5 µg/mL (≈ 25.1 µM) in experiment [1], 50 µg/mL (≈ 100 µM) in experiment [3], 25 µg/mL (≈ 50.2 µM) in experiment [4] and 50.2 µM (≈ 25 µg/mL) in experiment [5]. Further, the zone of inhibition at 100 µg/disc is 12 mm in experiment [2], 16 mm in experiment [6] and 10 mm in experiment [7].

As for `Clc1ccc([C@H](c2[se]nnc2-c2ccccc2)[C@@H]2CCCc3[se]nnc32)cc1`, the minimal inhibitory concentration (MIC) in experiment [1] is 25 µg/mL (≈ 48.2 µM); in [3], 25 µg/mL (≈ 48.2 µM); in [4], 50 µg/mL (≈ 96.4 µM); in experiment [5], 24.1 µM (≈ 12.5 µg/mL). Also, the zone of inhibition at 100 µg/disc in experiment [2] is less than 10 mm; in experiment [6] it was 20 mm; in [7], 10 mm.

In the case of `Cc1ccc(-c2nn[se]c2[C@@H](c2ccc(Cl)cc2)[C@@H]2CCCc3[se]nnc32)cc1`, the MIC came to 25 µg/mL (≈ 46.9 µM) in experiment [1], 12.5 µg/mL (≈ 23.5 µM) in experiment [3], 25 µg/mL (≈ 46.9 µM) in experiment [4] and 23.5 µM (≈ 12.5 µg/mL) in experiment [5]. The zone of inhibition at 100 µg/disc in experiment [2], in experiment [6] and in experiment [7] was 15 mm throughout.

As for `Clc1ccc(-c2nn[se]c2[C@@H](c2ccc(Cl)cc2)[C@@H]2CCCc3[se]nnc32)cc1`, the MIC in [1] came out at 25 µg/mL (≈ 45.2 µM); in experiment [3] it was 12.5 µg/mL (≈ 22.6 µM); in experiment [4], 12.5 µg/mL (≈ 22.6 µM); in experiment [5], 22.5 µM (≈ 12.4 µg/mL). In addition, the zone of inhibition at 100 µg/disc in [2], in experiment [6] and in experiment [7] was 15 mm throughout.

As for `Cc1ccc(-c2nn[se]c2[C@@H](c2ccccc2)[C@@H]2CCCc3[se]nnc32)cc1`, the minimal inhibitory concentration (MIC) is 50 µg/mL (≈ 100 µM) in experiment [1], 50 µg/mL (≈ 100 µM) in [3], 25 µg/mL (≈ 50.2 µM) in experiment [4] and 50.2 µM (≈ 25 µg/mL) in experiment [5]. Further, the zone of inhibition at 100 µg/disc in experiment [2] was 16 mm; in experiment [6], less than 10 mm; in experiment [7], 10 mm.

With `COc1ccc([C@H](c2[se]nnc2-c2ccccc2)[C@@H]2CCCc3[se]nnc32)cc1`, the minimal inhibitory concentration (MIC) in [1] amounted to 50 µg/mL (≈ 97.2 µM); in [3], 50 µg/mL (≈ 97.2 µM); in experiment [4] it was 50 µg/mL (≈ 97.2 µM); in experiment [5] it was 48.6 µM (≈ 25 µg/mL). Moreover, the zone of inhibition at 100 µg/disc in [2] is 15 mm; in [6], 15 mm; in experiment [7], less than 10 mm.

Turning to `COc1ccc(-c2nn[se]c2[C@@H](c2ccc(Cl)cc2)[C@@H]2CCCc3[se]nnc32)cc1`, the minimal inhibitory concentration (MIC) was determined as 25 µg/mL (≈ 45.6 µM) in experiment [1], 25 µg/mL (≈ 45.6 µM) in experiment [3], 12.5 µg/mL (≈ 22.8 µM) in experiment [4] and 45.5 µM (≈ 25 µg/mL) in experiment [5]. For the same compound, the zone of inhibition at 100 µg/disc in [2] came out at 18 mm; in experiment [6], 18 mm; in experiment [7], 15 mm.

As to `O=C(O)c1cn(C2CC2)c2cc(N3CCNCC3)c(F)cc2c1=O` [CIPROFLOXACIN], the zone of inhibition at 10 µg/disc in experiment [8] came to 25 mm; in experiment [9] it was 28 mm.

In the case of `Clc1ccccc1C(c1ccccc1)(c1ccccc1)n1ccnc1` [CLOTRIMAZOLE], the zone of inhibition at 10 µg/disc in experiment [10] was found to be 28 mm. Moreover, the MIC in [3] was found to be 6.25 µg/mL (≈ 18.1 µM).

On to `CC[C@@H](CO)NCCN[C@@H](CC)CO` [ETHAMBUTOL], for which it took 7.6 µM (≈ 1.55 µg/mL) to inhibit growth in experiment [5] (MIC).

`NNC(=O)c1ccncc1` [ISONIAZID] displayed an MIC in [5] of 0.4 µM (≈ 0.0549 µg/mL).

The compound `CO[C@H]1/C=C/O[C@@]2(C)Oc3c(C)c(O)c4c(O)c(c(/C=N/N5CCN(C)CC5)c(O)c4c3C2=O)NC(=O)/C(C)=C\C=C\[C@H](C)[C@H](O)[C@@H](C)[C@@H](O)[C@@H](C)[C@H](OC(C)=O)[C@@H]1C` [RIFAMPIN] yielded an MIC in experiment [5] of 0.1 µM (≈ 0.0823 µg/mL).
